ChEMBL document CHEMBL4813965, “Discovery of CYR715: A novel carboxylic acid-containing soluble guanylate cyclase stimulator” (Bioorg Med Chem Lett, 2021)
In brackets after ≈: the same amount, converted by molar mass.

Experiments:
[1] = Solubility of the compound at pH 7.0; format: physicochemical; details: buffer
[2] = AUC in rat at 1 mg/kg, po; format: ADME, organism-based; design: dose 1 mg/kg; details: in vivo
[3] = Apparent permeability across apical to basolateral side of dog MDR1-MDCK2 cells; format: ADME, cell-based, Canis lupus familiaris, MDCK-II; details: MDCK-MDR1
[4] = Oral bioavailability in rat at 1 mg/kg; format: ADME, organism-based; details: in vivo
[5] = Drug metabolism in rat assessed as formation of reactive and migrated acyl glucuronides metabolites; format: ADME

Structure (SMILES) | solubility [1] [µg/mL] | AUC [2] [ng·h/mL] | Papp A→B [3] [×10⁻⁶ cm/s] | bioavailability [4] [%] | Drug metabolism [5]
Oc1nc(-c2cc(-c3ccon3)n(Cc3ccccc3F)n2)ncc1F | 3 (≈ 8.44 µM) | 25000 | 24 |  | 
C[C@@H]1CCCN(c2nc(-c3cc(-c4ccon4)n(Cc4ccccc4F)n3)ncc2F)[C@@H]1C(=O)O | 21 (≈ 43.7 µM) | 3700 | 40 | > 100 | Metabolite_Detected
O=C(O)C1CCN(c2nc(-c3cc(-c4ccon4)n(Cc4ccccc4F)n3)ncc2F)CC1 |  |  |  |  | Metabolite_Detected
C[C@H]1CCCN(c2nc(-c3cc(-c4ccon4)n(Cc4ccccc4F)n3)ncc2F)[C@H]1C(=O)O |  |  |  |  | Metabolite_Detected
O=C(O)C1CCCN(c2nc(-c3cc(-c4ccon4)n(Cc4ccccc4F)n3)ncc2F)C1 (racemic) |  |  |  |  | Metabolite_Detected

The next lines start with the values.

solubility [1] [µg/mL] | AUC [2] [ng·h/mL] | Papp A→B [3] [×10⁻⁶ cm/s] | bioavailability [4] [%] | Drug metabolism [5] | Structure (SMILES)
 |  |  |  | Metabolite_Detected | O=C(O)[C@@H]1CCCCN1c1nc(-c2cc(-c3ccon3)n(Cc3ccccc3F)n2)ncc1F
 |  |  |  | Metabolite_Detected | O=C(O)[C@H]1CCCCN1c1nc(-c2cc(-c3ccon3)n(Cc3ccccc3F)n2)ncc1F
